# Test results reported in article PMC10910856 (RSC Advances, 2024).
# Test system: α-glucosidase
# Assay: Alpha-glucosidase inhibitory assay
# Type: biochemical, Bovine
# Conditions: ratio of IC50 values
row,times more active towards α-glucosidase enzyme than α-amylase enzyme [times],Structure (SMILES)
1,21,"CC1=NN(c2ccccc2)C(=O)C1=NNc1ccc(S(N)(=O)=O)cc1 [Compound 3a, 4-(2-(3-Methyl-5-oxo-1-phenyl-1,5-dihydro-4H-pyrazol-4-ylidene) hydrazinyl)benzenesulfonamide]"

# Same assay, conditions: read-out: α-Glucosidase IC50 (μM ± SD); mean of three replicates
row,IC50 [µM],Structure (SMILES)
1,55.4 ± 4.8,"CC1=NN(c2cccc(C)c2)C(=O)C1=NNc1ccc(S(N)(=O)=O)cc1 [Compound 3f, 4-(2-(3-Methyl-5-oxo-1-(m-tolyl)-1,5-dihydro-4H-pyrazol-4-ylidene)-hydrazinyl)benzenesulfonamide]"
2,25.1 ± 0.7,"CC1=NN(c2ccc(Cl)cc2)C(=O)C1=NNc1ccc(S(N)(=O)=O)cc1 [Compound 3b, 4-(2-(1-(4-Chlorophenyl)-3-methyl-5-oxo-1,5-dihydro-4H-pyrazol-4-ylidene)hydrazinyl)benzenesulfonamide]"
3,19.4 ± 2.7,"CC1=NN(c2ccccc2)C(=O)C1=NNc1ccc(S(N)(=O)=O)cc1 [Compound 3a, 4-(2-(3-Methyl-5-oxo-1-phenyl-1,5-dihydro-4H-pyrazol-4-ylidene) hydrazinyl)benzenesulfonamide]"
4,44.8 ± 3.4,"CC1=NN(c2ccc(F)cc2)C(=O)C1=NNc1ccc(S(N)(=O)=O)cc1 [Compound 3e, 4-(2-(1-(4-Fluorophenyl)-3-methyl-5-oxo-1,5-dihydro-4H-pyrazol-4-ylidene)hydrazinyl)benzenesulfonamide]"
5,99.1 ± 6.8,"CC1=NN(c2ccc(C)cc2)C(=O)C1=NNc1ccc(S(N)(=O)=O)cc1 [Compound 3g, 4-(2-(3-Methyl-5-oxo-1-(p-tolyl)-1,5-dihydro-4H-pyrazol-4-ylidene)-hydrazinyl)benzenesulfonamide]"
6,25.6 ± 2.1,"CC1=NN(c2cccc([N+](=O)[O-])c2)C(=O)C1=NNc1ccc(S(N)(=O)=O)cc1 [Compound 3h, 4-(2-(3-Methyl-1-(3-nitrophenyl)-5-oxo-1,5-dihydro-4H-pyrazol-4-ylidene)hydrazinyl)benzenesulfonamide]"
7,82.7 ± 7.4,"CC1=NN(c2ccccn2)C(=O)C1=NNc1ccc(S(N)(=O)=O)cc1 [Compound 3j, 4-(2-(3-Methyl-5-oxo-1-(pyridin-2-yl)-1,5-dihydro-4H-pyrazol-4-ylidene)hydrazinyl)benzenesulfonamide]"
8,50.2 ± 4.8,"CC1=NN(c2cc(Cl)ccc2Cl)C(=O)C1=NNc1ccc(S(N)(=O)=O)cc1 [Compound 3i, 4-(2-(1-(2,5-Dichlorophenyl)-3-methyl-5-oxo-1,5-dihydro-4H-pyrazol-4-ylidene)hydrazinyl)benzenesulfonamide]"

# Further lines, the compound ahead of its results:
row,Structure (SMILES),IC50 [µM]
1,"CC1=NNC(=O)C1=NNc1ccc(S(N)(=O)=O)cc1 [Compound 4, 4-(2-(3-Methyl-5-oxo-1,5-dihydro-4H-pyrazol-4-ylidene)hydrazinyl)-benzenesulfonamide]",76 ± 6.1
2,"CC1=NOC(=O)C1=NNc1ccc(S(N)(=O)=O)cc1 [Compound 5, 4-(2-(3-Methyl-5-oxoisoxazol-4(5H)-ylidene)hydrazinyl)benzene-sulfonamide]",78.7 ± 5.9
3,"CC1=NNC(=S)NC(=O)C1/N=N/c1ccc(S(N)(=O)=O)cc1 (stereo not shown) [Compound 7, (E)-4-((7-methyl-5-oxo-3-thioxo-3,4,5,6-tetrahydro-2H-1,2,4-triazepin-6-yl)diazenyl)benzenesulfonamide]",85.4 ± 2.3
4,"CC1=NCCNC(=O)C1=NNc1ccc(S(N)(=O)=O)cc1 [Compound 8, 4-(2-(5-Methyl-7-oxo-1,2,3,7-tetrahydro-6H-1,4-diazepin-6-ylidene)hydrazinyl)benzenesulfonamide]",110 ± 6.7
